# Patent US20240368092A1, “2,4-Dihydro-3H-1,2,4-Triazol-3-One P2X7 Antagonists” (Breye Therapeutics ApS, priority 2021, published 2024)
# Experiments:
# Type in all cases: cell-based
# human P2X7 channel = molecular target: T1, human P2X7 channel (Homo sapiens, UniProt Q99572); test: human P2X7 channel assay by automated patch-clamp (QPatch 16X); settings: HEK-293 cells expressing P2X7; current evoked by 100 microM BzATP; whole-cell, held at -80 mV; read-out: human Q-Patch (activity range)
# T1 construct: expressed in transfected cells; host or cells: HEK-293
# T1 sequence (Q99572 1-595): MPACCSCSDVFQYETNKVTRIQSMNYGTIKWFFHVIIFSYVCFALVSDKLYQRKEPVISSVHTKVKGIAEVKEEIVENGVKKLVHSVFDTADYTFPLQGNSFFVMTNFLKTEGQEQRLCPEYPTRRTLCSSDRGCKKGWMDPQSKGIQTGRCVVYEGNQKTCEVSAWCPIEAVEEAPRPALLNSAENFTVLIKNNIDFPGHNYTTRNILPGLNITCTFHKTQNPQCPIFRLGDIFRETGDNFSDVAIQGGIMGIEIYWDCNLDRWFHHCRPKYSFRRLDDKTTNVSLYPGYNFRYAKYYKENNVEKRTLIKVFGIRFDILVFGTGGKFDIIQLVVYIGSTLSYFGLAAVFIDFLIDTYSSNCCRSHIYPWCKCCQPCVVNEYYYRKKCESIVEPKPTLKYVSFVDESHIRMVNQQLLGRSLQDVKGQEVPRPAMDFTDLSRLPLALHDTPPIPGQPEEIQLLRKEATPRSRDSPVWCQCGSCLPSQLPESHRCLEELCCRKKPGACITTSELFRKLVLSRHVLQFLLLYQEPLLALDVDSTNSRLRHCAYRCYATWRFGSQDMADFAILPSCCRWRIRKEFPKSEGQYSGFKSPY
# Method: In order to directly monitor the block of P2X7 channel, an electrophysiological assay was developed and implemented on the QPatchl6X automated electrophysiology instrument.
# HEK-293 cells expressing the P2X7 channels were cultured in modified EMEM.
# 72 hours before experiment, 5 million cells were seeded onto T225 flasks. Just before the experiment cells were washed twice, detached from the flask with trypsin-EDTA, re-suspended in the suspension solution and placed on the QPatch 16x.
# The compounds (20 mM in a 100% DMSO) stored at −20° C. were prepared the day of the experiment (a first dilution 1:20 in 100% DMSO to prepare a 1 mM stock solution, then a 1 microM solution in external solution+a serial dilution 1:10).
# The standard whole-cell voltage clamp experiments were performed at room temperature. From these experiments the multihole technology was used and the data were sampled at 2 KHz.
# The intracellular solution contained (mM) 135 CsF, 10 NaCl, 1 EGTA, 10 HEPES, (pH 7.2 with CsOH) whereas the extracellular contained (mM) 145 NaCl, 4 KCl, 0.5 MgCl2, 1 CaCl2, 10 HEPES, 10 Glc (pH 7.4 with NaOH).
# After establishment of the seal and the passage in the whole cell configuration, the cells were held at −80 mV. The P2XR7 current was evoked by applying 100 microM of BzATP alone (4 times) and then in the presence increasing concentrations of the compound under investigation (1, 10, 100 and 1000 nM).
# The pre-incubation periods 5 to 8 contain increasing concentrations of the compound of interest (1, 10, 100 and 1000 nM), as illustrated in FIGURE (application protocol).
# The maximal inward current evoked by BzATP in absence or presence of increasing concentrations of the compounds under investigation was measured and normalized. The potential […] effect was measured as % of control and as IC50 determined fitting the dose-response curves data with the following equation:
# Here are reported the potency ranges as A, B, C and D, where A is <10 nM; B is 10 nM-100 nM, C is 0.1-1 μM, D is 1-10 μM.
# humanP2X7 = molecular target: T2, humanP2X7 (Homo sapiens, UniProt Q99572); test: P2X7 channel calcium-influx assay (Fluo-8, FLIPR TETRA), human P2X7; settings: HEK-293 cells stably transfected with P2X7; Bz-ATP at EC80; low divalent cation buffer; read-out: humanP2X7 (activity range)
# T2 construct: expressed in transfected cells; host or cells: HEK-293
# T2 sequence (Q99572 1-595): T1 sequence (Q99572 1-595)
# Method: (§1) Extracellular binding of Bz-ATP to P2X7 receptor opens the channel and allows Ca^2+ influx into the cells. This Ca^2+ entry was measured in HEK-293 cells stably transfected with P2X7 receptor using Screen Quest™ Fluo-8 No Wash Calcium Assay Kit (AAt Bioquest®, cat. 36316). Once inside the cell, the lipophilic blocking groups of Fluo-8 are cleaved by non-specific cell esterases, resulting in a negatively-charged fluorescent dye that stays inside cells. Its fluorescence increases upon binding to calcium. When HEK-293/P2X7 cells are stimulated with Bz-ATP, Ca^2+ enters the cells and the fluorescence of Fluo-8 NW increases. The dye has an absorption spectrum compatible with excitation at 488 nm by argon laser sources and its emission wavelength is in the range of 515-575 nm.
# (§2) HEK-293 cells stably transfected with P2X7 receptor were seeded overnight in growth medium at 10,000 to 20,000 cells/well in 384-well plate. 24 hours later, the medium was removed, and the cells were pre-loaded at RT for 1 hour with 20 μL/w of Fluo-8 NW. Then 10 μL/w of test compounds and reference antagonist A438079 at 3×-concentration were injected with the FLIPRTETRA and the kinetic response over a period of five minutes was monitored. A second injection of 15 μL/w of 3× reference activator (Bz-ATP at EC80) was performed with the FLIPR TETRA and the signal of the emitted fluorescence was recorded for additional three minutes. All the experiment was carried out in a Low Divalent Cation Assay Buffer (0.3 mM Ca^2+ and 0 mM Mg^2+). The effect of the test compounds was measured as percent inhibition vs the reference antagonist and IC50 values were calculated accordingly. Here are reported the potency ranges as A, B, C and D, where A is <200 nM; B is 200 nM-1 μM, C is 1-10 μM, D is 10-30 μM.
# mouseP2X7 = molecular target: T3, mouseP2X7 (Mus musculus, UniProt Q9Z1M0); test: P2X7 channel calcium-influx assay (Fluo-8, FLIPR TETRA), mouse P2X7; settings: HEK-293 cells stably transfected with P2X7; Bz-ATP at EC80; low divalent cation buffer; read-out: mouseP2X7 (activity range)
# T3 construct: expressed in transfected cells; host or cells: HEK-293
# T3 sequence (Q9Z1M0 1-595): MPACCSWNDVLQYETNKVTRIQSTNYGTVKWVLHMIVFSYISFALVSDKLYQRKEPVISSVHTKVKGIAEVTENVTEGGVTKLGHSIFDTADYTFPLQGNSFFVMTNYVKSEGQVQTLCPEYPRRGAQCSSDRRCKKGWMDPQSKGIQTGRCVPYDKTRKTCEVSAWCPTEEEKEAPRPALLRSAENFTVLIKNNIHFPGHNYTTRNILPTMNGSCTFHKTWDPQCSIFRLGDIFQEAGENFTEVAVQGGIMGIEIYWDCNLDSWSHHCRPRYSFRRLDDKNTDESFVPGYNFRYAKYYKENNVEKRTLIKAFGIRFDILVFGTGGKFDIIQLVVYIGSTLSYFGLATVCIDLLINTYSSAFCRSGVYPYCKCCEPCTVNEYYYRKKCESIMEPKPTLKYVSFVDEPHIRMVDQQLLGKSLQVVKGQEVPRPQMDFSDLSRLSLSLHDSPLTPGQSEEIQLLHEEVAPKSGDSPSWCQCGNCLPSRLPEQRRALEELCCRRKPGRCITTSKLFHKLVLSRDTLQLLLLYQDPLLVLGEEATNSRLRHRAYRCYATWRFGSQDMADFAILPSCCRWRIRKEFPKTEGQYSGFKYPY
# Method: as §1, §2
# ratP2X7 = molecular target: T4, ratP2X7 (Rattus norvegicus, UniProt Q64663); test: P2X7 channel calcium-influx assay (Fluo-8, FLIPR TETRA), rat P2X7; settings: HEK-293 cells stably transfected with P2X7; Bz-ATP at EC80; low divalent cation buffer; read-out: ratP2X7 (activity range)
# T4 construct: expressed in transfected cells; host or cells: HEK-293
# T4 sequence (Q64663 1-595): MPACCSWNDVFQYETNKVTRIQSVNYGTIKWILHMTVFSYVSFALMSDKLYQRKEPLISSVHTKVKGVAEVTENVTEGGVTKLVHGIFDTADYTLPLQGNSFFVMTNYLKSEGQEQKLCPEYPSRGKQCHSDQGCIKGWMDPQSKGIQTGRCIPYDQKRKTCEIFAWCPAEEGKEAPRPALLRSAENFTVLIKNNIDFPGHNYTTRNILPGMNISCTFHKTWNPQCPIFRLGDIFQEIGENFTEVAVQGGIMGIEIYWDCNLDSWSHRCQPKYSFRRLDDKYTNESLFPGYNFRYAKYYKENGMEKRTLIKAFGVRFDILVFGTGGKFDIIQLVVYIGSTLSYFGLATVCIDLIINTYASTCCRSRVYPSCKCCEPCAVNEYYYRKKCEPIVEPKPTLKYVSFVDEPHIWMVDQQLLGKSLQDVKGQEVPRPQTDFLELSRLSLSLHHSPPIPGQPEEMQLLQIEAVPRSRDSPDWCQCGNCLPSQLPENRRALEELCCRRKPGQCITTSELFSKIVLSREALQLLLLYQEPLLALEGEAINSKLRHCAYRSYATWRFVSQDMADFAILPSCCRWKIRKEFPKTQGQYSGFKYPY
# Method: as §1, §2
Structure (SMILES),IC50 (human P2X7 channel) [nM],IC50 (humanP2X7) [nM],IC50 (mouseP2X7) [nM],IC50 (ratP2X7) [nM]
"Cn1nc(CC2CCCCC2)n(Cc2ccnc(C(F)(F)F)c2)c1=O [Example 13, 5-(cyclohexylmethyl)-2-methyl-4-((2-(trifluoromethyl)pyridin-4-yl)methyl)-2,4-dihydro-3H-1,2,4-triazol-3-one]",1000 to 10000,10000 to 30000,10000 to 30000,10000 to 30000
"Cn1nc(CC2CCCCC2)n(Cc2c(F)cccc2Cl)c1=O [Example 24, 4-(2-chloro-6-fluorobenzyl)-5-(cyclohexylmethyl)-2-methyl-2,4-dihydro-3H-1,2,4-triazol-3-one]",100 to 1000,200 to 1000,1000 to 10000,< 200
"Cn1nc(CC2CCCCC2)n(Cc2cc(-c3ncc(F)cn3)ccc2Cl)c1=O [Example 38, 4-(2-chloro-5-(5-fluoropyrimidin-2-yl)benzyl)-5-(cyclohexylmethyl)-2-methyl-2,4-dihydro-3H-1,2,4-triazol-3-one]",1000 to 10000,200 to 1000,1000 to 10000,200 to 1000
"Cn1nc(Cc2c(F)cccc2Cl)n(CCN2CCOCC2(C)C)c1=O [Example 30, 5-(2-chloro-6-fluorobenzyl)-4-(2-(3,3-dimethylmorpholino)ethyl)-2-methyl-2,4-dihydro-3H-1,2,4-triazol-3-one]",1000 to 10000,1000 to 10000,10000 to 30000,1000 to 10000
"Cn1nc(Cc2ccccc2F)n(CCC2CCC(C)(C)CC2)c1=O [Example 45, 4-(2-(4,4-dimethylcyclohexyl)ethyl)-5-(2-fluorobenzyl)-2-methyl-2,4-dihydro-3H-1,2,4-triazol-3-one]",1000 to 10000,1000 to 10000,10000 to 30000,1000 to 10000
"Cn1nc(Cc2ccccc2C(F)(F)F)n(CC2CCC(C(F)(F)F)CC2)c1=O (centres unmarked) [Example 40, 2-methyl-5-(2-(trifluoromethyl)benzyl)-4-((4-(trifluoromethyl)cyclohexyl)methyl)-2,4-dihydro-3H-1,2,4-triazol-3-one]",100 to 1000,< 200,1000 to 10000,< 200
"CCn1nc(Cc2ccccc2Cl)n(CC2CCC(F)(F)CC2)c1=O [Example 63, 5-[(2-chlorophenyl)methyl]-4-[(4,4-difluorocyclohexyl)methyl]-2-ethyl-2,4-dihydro-3H-1,2,4-triazol-3-one]",10 to 100,< 200,200 to 1000,< 200
"Cc1ncccc1Cn1c(CC2CCCCC2)nn(C)c1=O [Example 31, 5-(cyclohexylmethyl)-2-methyl-4-((2-methylpyridin-3-yl)methyl)-2,4-dihydro-3H-1,2,4-triazol-3-one]",100 to 1000,1000 to 10000,10000 to 30000,1000 to 10000

# Continued, values first:
IC50 (human P2X7 channel) [nM],IC50 (humanP2X7) [nM],IC50 (mouseP2X7) [nM],IC50 (ratP2X7) [nM],Structure (SMILES)
< 10,< 200,< 200,< 200,"O=c1n(CC(F)(F)F)nc(Cc2ccccc2Cl)n1CC1CCC(F)(F)CC1 [Example 62, 5-[(2-chlorophenyl)methyl]-4-[(4,4-difluorocyclohexyl)methyl]-2-(2,2,2-trifluoroethyl)-2,4-dihydro-3H-1,2,4-triazol-3-one]"
10 to 100,< 200,200 to 1000,< 200,"O=c1n(CC2CC2)nc(Cc2c(F)cccc2Cl)n1CC1CCC(C(F)(F)F)CC1 (centres unmarked) [Example 69, 5-(2-chloro-6-fluorobenzyl)-2-(cyclopropylmethyl)-4-((4-(trifluoromethyl)cyclohexyl)methyl)-2,4-dihydro-3H-1,2,4-triazol-3-one]"
10 to 100,< 200,< 200,< 200,"O=c1n(CC2CC2)nc(Cc2c(F)cccc2Cl)n1CC1CCC(F)(F)CC1 [Example 43, 5-(2-chloro-6-fluorobenzyl)-2-(cyclopropylmethyl)-4-((4,4-difluorocyclohexyl)methyl)-2,4-dihydro-3H-1,2,4-triazol-3-one]"
